Legend:
[1] = system: IL-6 secretion, RAW264.7 cells; assay: ELISA of IL-6 from RAW264.7 cells pretreated with kinase inhibitors; format: cell-based; parameters: unit not given here
Procedure: (§1) Serum was separated from patient samples for measurement of AGEs with an ELISA kit (#MBS267540, MyBioSource, San Diego, CA, USA) according to the manufacturer’s instructions. […] Then, cultured cells were incubated with or without AGEs (100 μg/ml) for 12 h, and the supernatant was collected for the measurement of TNF (#MTA00B) and IL-6 (#M6000B) levels with ELISA kits (R&D Systems, Minneapolis, MN, USA) according to the manufacturer’s instructions.

[2] = system: TNF secretion, RAW264.7 cells; assay: ELISA of TNF from RAW264.7 cells pretreated with kinase inhibitors; format: cell-based
Procedure: as §1

[3] = system: IKKα/β phosphorylation, BMDMs; assay: Western blot, IKKα/β phosphorylation in WT or SLP76-/- BMDMs stimulated with HMGB1; format: cell-based, mice; conditions: relative to WT Ctrl = 1
Procedure: (§2) Cultured cells in 6-well plates were harvested, washed twice with PBS, and lysed for 30 min on ice in 150 μl of cell lysis buffer (#9803) from CST (Boston, MA, USA) containing 1 mM PMSF and 2 μg/ml leupeptin. Proteins were quantified with the BCA method. Protein samples were resolved by 10% SDS-PAGE, transferred to a nitrocellulose (NC) membrane (#GE10600002), and blocked for 1 h with 5% nonfat milk in Tris-buffered saline containing 0.1% Tween 20 (TBST) at room temperature. After incubation with a specific primary antibody overnight at 4 °C, the membrane was washed with TBST three times. Then, the membrane was incubated with a secondary antibody for 1 h at room temperature. Enhanced chemiluminescence (ECL) (#32109, Thermo Fisher Scientific, Waltham, MA, USA) was used to visualize the protein bands, and images were acquired in a ChemiDoc™ Imaging System (Bio-Rad, Hercules, CA, USA). Each experiment was repeated at least three times.
(§3) BMDMs were isolated from WT, AGER knockout, and SLP76 knockout mice. Mice were euthanized, and the femur and tibia were isolated and sterilized in 70% ethanol for 15 s and then washed with PBS. A 25-gauge needle was used to flush out the bone marrow with DMEM supplemented with 1% FBS. Bone marrow cells were passed through a cell strainer (70 μm), washed with PBS, and plated into a […] dish at a density of 1 × 10^7 cells/10 ml medium. BMDMs were grown in DMEM supplemented with 10% FBS and M-CSF (#130-094-129) (20 ng/ml) at 37 °C, and the medium was refreshed on day 3. After growth for 7 days, the cells were ready for use in subsequent experiments.

[4] = system: ERK1/2 phosphorylation, BMDMs; assay: Western blot, ERK1/2 phosphorylation in WT or SLP76-/- BMDMs stimulated with HMGB1; format: cell-based, mice; conditions: relative to WT Ctrl = 1
Procedure: as §2, §3

[5] = system: p38 MAPK phosphorylation, BMDMs; assay: Western blot, p38 MAPK phosphorylation in WT or SLP76-/- BMDMs stimulated with HMGB1; format: cell-based, mice; conditions: for Relative p38 MAPK phosphorylation, Supplementary figure 12a: relative to WT Ctrl = 1
Procedure: as §2, §3

cytosolic tail of RAGE = assay: SPRi binding affinity of SAM domain peptide to RAGE cytosolic tail peptide; conditions: synthetic peptides, SAM 250, 500, 1000, 2000 nM, TBS pH 7.5, n=4
Procedure: To measure the binding affinity of the cytosolic tail of RAGE with the SAM domain of SLP76, a PlexArray HT A100 (Plexera, USA) was used to monitor the whole procedure in real time. Briefly, a chip with well-prepared biomolecular microarray was assembled with a plastic flow cell for sample loading. The synthesized peptide of RAGE cytosolic tail was prepared at 5 mM concentration in Tris-buffered saline (TBS) running buffer (20 mM Tris and 100 mM NaCl [pH 7.5]), and a 10 mM glycine-HCl buffer (pH 2.0) was used as regeneration buffer. The synthesized peptide of SLP76 SAM domain flowed at increasing concentrations (250, 500, 1000, 2000 nM). Binding data were collected and analyzed by a commercial SPRi analysis software (Plexera SPR Data Analysis Module, Plexera, USA).

[6] = AGEs-, inhibitor alone, replicate Exp1
[7] = AGEs-, inhibitor alone, replicate Exp2
[8] = AGEs-, inhibitor alone, replicate Exp3
[9] = inhibitor 1 h, then AGEs 100 μg/ml 12 h, replicate Exp1
[10] = inhibitor 1 h, then AGEs 100 μg/ml 12 h, replicate Exp2
[11] = inhibitor 1 h, then AGEs 100 μg/ml 12 h, replicate Exp3
[12] = AGEs-, inhibitor alone, replicate Exp1, in pg/mL
[13] = AGEs-, inhibitor alone, replicate Exp2, in pg/mL
[14] = AGEs-, inhibitor alone, replicate Exp3, in pg/mL
[15] = inhibitor 1 h, then AGEs 100 μg/ml 12 h, replicate Exp1, in pg/mL
[16] = inhibitor 1 h, then AGEs 100 μg/ml 12 h, replicate Exp2, in pg/mL
[17] = inhibitor 1 h, then AGEs 100 μg/ml 12 h, replicate Exp3, in pg/mL

Row | Molecule | IL-6 level in culture medium [1, 6] | IL-6 level in culture medium [1, 7] | IL-6 level in culture medium [1, 8] | IL-6 level in culture medium [1, 9] | IL-6 level in culture medium [1, 10] | IL-6 level in culture medium [1, 11] | TNF level in culture medium [2, 12] | TNF level in culture medium [2, 13] | TNF level in culture medium [2, 14] | TNF level in culture medium [2, 15] | TNF level in culture medium [2, 16] | TNF level in culture medium [2, 17] | also measured
1 | COc1cc(O)c2c(c1)oc(=O)c1c3cc(O)c(O)cc3oc21 [NF-kB inhibitor] | 8.8 | 7.706 | 6.631 | 22.657 | 39.53 | 43.441 | 256.62 | 271.706 | 441.431 | 3097.6 | 4273.53 | 5262.53 | 
2 | COc1cccc(-c2cc(=O)c3ccccc3o2)c1N [PD98059] | 7.69 | 0 | 2.224 | 19.112 | 12.03 | 16.667 | 26.755 |  | 9.578 | 1779.92 | 1294.03 | 1283.56 | TNF level in culture medium [2, 7]: 0 pg/mL
3 | C[S+]([O-])c1ccc(-c2nc(-c3ccncc3)c(-c3ccc(F)cc3)[nH]2)cc1 (centres unmarked) [SB203580] | 3.021 | 5.813 | 3.214 | 30.327 | 52.19 | 33.459 | 86.693 | 25.813 | 72.783 | 2106.86 | 5252.19 | 5785.62 | 
4 | HMGB1: recombinant mouse HMGB1, Abcam (#ab181949) (protein, UniProt P63158 1-215, looked up) High mobility group protein B1: MGKGDPKKPRGKMSSYAFFVQTCREEHKKKHPDASVNFSEFSKKCSERWKTMSAKEKGKFEDMAKADKARYEREMKTYIPPKGETKKKFKDPNAPKRPPSAFFLFCSEYRPKIKGEHPGLSIGDVAKKLGEMWNNTAADDKQPYEKKAAKLKEKYEKDIAAYRAKGKPDAAKKGVVKAEKSKKKKEEEDDEEDEEDEEEEEEEEDEDEEEDDDDE |  |  |  |  |  |  |  |  |  |  |  |  | Relative IKKα/β phosphorylation, Supplementary figure 12c ([3]; SLP76-/-, Exp1): 0.8306; Relative IKKα/β phosphorylation, Supplementary figure 12c ([3]; SLP76-/-, Exp2): 2.523; Relative IKKα/β phosphorylation, Supplementary figure 12c ([3]; SLP76-/-, Exp3): 0.8014; Relative IKKα/β phosphorylation, Supplementary figure 12c ([3]; WT, Exp1): 3.067; Relative IKKα/β phosphorylation, Supplementary figure 12c ([3]; WT, Exp2): 3.67; Relative IKKα/β phosphorylation, Supplementary figure 12c ([3]; WT, Exp3): 5.409; Relative ERK1/2 phosphorylation, Supplementary figure 12b ([4]; SLP76-/-, Exp1): 7.033; Relative ERK1/2 phosphorylation, Supplementary figure 12b ([4]; SLP76-/-, Exp2): 9.087; Relative ERK1/2 phosphorylation, Supplementary figure 12b ([4]; SLP76-/-, Exp3): 4.787; Relative ERK1/2 phosphorylation, Supplementary figure 12b ([4]; WT, Exp1): 15.3469; Relative ERK1/2 phosphorylation, Supplementary figure 12b ([4]; WT, Exp2): 12.0882; Relative ERK1/2 phosphorylation, Supplementary figure 12b ([4]; WT, Exp3): 9.928; Activation of proinflammatory signaling pathways ([5]; HMGB1 400 ng/ml, 15 min, p38 MAPK, ERK1/2, IKKα/β, text says RAW264.7 cells, figure BMDMs): activated proinflammatory signaling pathways via SLP76; Relative p38 MAPK phosphorylation, Supplementary figure 12a ([5]; SLP76-/-, Exp1): 2.8038; Relative p38 MAPK phosphorylation, Supplementary figure 12a ([5]; SLP76-/-, Exp2): 3.004; Relative p38 MAPK phosphorylation, Supplementary figure 12a ([5]; SLP76-/-, Exp3): 2.223; Relative p38 MAPK phosphorylation, Supplementary figure 12a ([5]; WT, Exp1): 7.041; Relative p38 MAPK phosphorylation, Supplementary figure 12a ([5]; WT, Exp2): 4.728; Relative p38 MAPK phosphorylation, Supplementary figure 12a ([5]; WT, Exp3): 5.924
5 | SAM domain of SLP76: synthesized peptide of SLP76 SAM domain used in SPRi (peptide) peptide: WDPDSLADYFKKLNYKDCEKAVKKYHIDGARFLNLTENDIQKFPKLRVPILSKLSQEINKNEERRSI |  |  |  |  |  |  |  |  |  |  |  |  | Binding to cytosolic tail of RAGE (cytosolic tail of RAGE): dose-dependent binding
